The source of these data is US4132786A, “N-Substituted 2-methoxybenzenesulphonamides and medicaments containing them” (priority 1975, dated 1979).

The nature of data set [1]: Solubility remark in the Toxicity column. The following applies: in words. In kind it is physicochemical.
The subject of another data set is apomorphine. In words: Determination of central antiemetic activity (apomorphine vomiting). Format: in vivo, Beagle dogs. The conditions noted are these: 1 mg/kg intramuscular; for Antiemetic effect /22 (average number of vomitings for two dogs): 30 min before 0.1 mg/kg apomorphine s.c., counted 30 min, controls 22. On the procedure:
These tests were carried out on adult Beagle dogs with a weight of 7 to 12 kg and which had gone without food for 18 hours. The dogs receive a dose of 1 mg/kg (0.1 ml/kg) of the compound according to the invention by intramuscular injection. 30 minutes later, 0.1 mg/kg (0.1 ml/kg) of apomorphine is administered to them subcutaneously as a central compound. The vomitings during the 30 minutes following the injection of apomorphine are counted. For two dogs serving as controls and receiving only the apomorphine 22 vomitings were counted. […] The results were confirmed by alternate tests by resuming these tests and interchanging the control dogs and the dogs on which the compounds according to the invention were previously tried.
The results relating to the toxicity and the central antiemetic activity of the compounds given hereinbefore are stated clearly in the following Table. The antiemetic activity is expressed in the form of the average number of vomitings for two dogs and is to be compared with the number 22 obtained with the control animals.

The nature of data set [2]: Determination of acute toxicity (LD50), intravenous, male mice. The conditions noted are these: mouse, in vivo, 5 mice per batch, 6 days. The protocol:
The acute toxicity of the compounds according to the invention was determined on male mice whose weight varied between 24 and 26 g. The compounds are administered intravenously in solution form and at the rate of 0.5 ml per 20 g of body weight, by varying the concentration of the injected solution.
Each compound is tested on a batch of 5 mice which are examined for 6 days following the injection.

Another data set relates to pentetrazole. In words: Anticonvulsive activity (pentetrazole convulsions). In kind it is in vivo, mice. The conditions noted are these: 50 mg/kg i.p., pentetrazole 100 mg/kg i.p. The protocol: The compounds according to the invention were tested for their anticonvulsive activity by following the procedure described hereinafter.
Each compound is administered intraperitoneally to a batch of mice at the rate of 50 mg of compound per kilogram of body weight. 30 minutes later the mice receive, still intraperitoneally, 100 mg/kg of pentetrazole.
The time of appearance of the first convulsions (clonic convulsions), that of the tonic convulsions (hyperextension) and the death of the mice is then measured. The injections of pentetrazole are carried out comparatively on control animals.

The subject of another data set is cornea of rabbits. Nature of the data set: Local anesthetic activity by Regnier's method. The conditions noted are these: in words. Format: in vivo. The protocol: This activity was measured on the cornea of rabbits by Regnier's method, described on particular in "Principes de la pharmacodynamie," pp. 204-206, Masson (1959).

`CCN(CC)CCCNS(=O)(=O)c1cc(Cl)ccc1OC` [Ref. m]: in data set [1], the “solubility (printed in Toxicity column)” value is listed as “insoluble”. Besides, in the data set on apomorphine, the “Antiemetic effect /22 (average number of vomitings for two dogs)” value worked out at 12 vomitings.
With `CCN(CC)CCCNS(=O)(=O)c1cc(Cl)c(N)cc1OC` [Ref. i, 2-methoxy-4-amino-5-chloro-N-(3-diethylaminopropyl)benzenesulphonamide], the 50% lethal dose (LD50) at 144 h in data set [2] came out at 117 mg/kg. For the same molecule, the “mice dead at the end of the test (of five in the batch)” value in the data set on pentetrazole (of the five mice) was “three”. Moreover, the lethalness entry in the data set on pentetrazole (in words) is recorded as “a decrease in the lethalness”. In the data set on apomorphine, the “Antiemetic effect /22 (average number of vomitings for two dogs)” value is listed as 3 vomitings. Besides, the antiemetic activity result with apomorphine (in words, apomorphine 0.1 mg/kg s.c.) was “excellent”.
With `COc1ccc(S(N)(=O)=O)cc1S(=O)(=O)NCCN(C)C` [Ref. n], the LD50 at 144 h in data set [2] is > 100 mg/kg.
`CCN(CC)CCCNS(=O)(=O)c1ccc(N)cc1OC` [Ref. c, 2-methoxy-4-amino-N-(3-diethylaminopropyl)benzenesulphonamide] had an LD50 at 144 h in data set [2] of 50 to 100 mg/kg. Also, the “Antiemetic effect /22 (average number of vomitings for two dogs)” value in the data set on apomorphine was 17 vomitings. Also, the local anesthetic action result in the data set with cornea of rabbits is “a certain local anesthetic action”.
In the case of `COc1ccc(Cl)cc1S(=O)(=O)NCCN(C)C` [Ref. k], the LD50 at 144 h in data set [2] was > 100 mg/kg. Also, the “Antiemetic effect /22 (average number of vomitings for two dogs)” value with apomorphine is reported as 22 vomitings.
As for `CCN(CC)CCCNS(=O)(=O)c1cc(Cl)c([N+](=O)[O-])cc1OC` [Ref. e], in data set [2], the LD50 at 144 h is > 100 mg/kg.
`CCN(CC)CCNS(=O)(=O)c1cc(Cl)c(N)cc1OC` [Ref. f] returned an LD50 at 144 h in data set [2] of 50 to 100 mg/kg. Besides, the “Antiemetic effect /22 (average number of vomitings for two dogs)” value in the data set on apomorphine was found to be 13 vomitings.
For `COc1cc([N+](=O)[O-])c(Cl)cc1S(=O)(=O)NCCN1CCCCC1` [Ref. d], in data set [2], the LD50 at 144 h is > 100 mg/kg. In the data set with apomorphine, the “Antiemetic effect /22 (average number of vomitings for two dogs)” value was found to be 16 vomitings.
With `COc1cc(N)c(Cl)cc1S(=O)(=O)NCCCN(C)C` [Ref. h], in data set [2], the LD50 at 144 h was > 100 mg/kg. Moreover, the “Antiemetic effect /22 (average number of vomitings for two dogs)” value with apomorphine is on record as 9 vomitings.
The matching figures for `CCN(CC)CCNS(=O)(=O)c1ccc([N+](=O)[O-])cc1OC`: > 100 mg/kg and 15 vomitings.
In the case of `COc1cc(N)c(Cl)cc1S(=O)(=O)NCCCN1CCOCC1` [Ref. j], the LD50 at 144 h in data set [2] was > 100 mg/kg. Moreover, the “Antiemetic effect /22 (average number of vomitings for two dogs)” value with apomorphine was 22 vomitings.
With `COc1cc(N)c(Cl)cc1S(=O)(=O)NCCCN1CCCCC1` [Ref. o], in data set [2], the LD50 at 144 h lay within 80 to 100 mg/kg.
In the case of `CCN(CC)CCNS(=O)(=O)c1ccc(N)cc1OC` [Ref. b, 2-methoxy-4-amino-N-(2-diethylaminoethyl)benzenesulphonamide], the median lethal dose (LD50) at 144 h in data set [2] is > 100 mg/kg. Besides, in the data set with apomorphine, the “Antiemetic effect /22 (average number of vomitings for two dogs)” value turned out to be 22 vomitings. Also, the local anesthetic action entry in the data set on cornea of rabbits is given as “a certain local anesthetic action”.
The molecule `COc1cc(N)c(Cl)cc1S(=O)(=O)NCCN1CCCCC1` [Ref. g] displayed a median lethal dose (LD50) at 144 h in data set [2] of 50 to 100 mg/kg. In addition, the “Antiemetic effect /22 (average number of vomitings for two dogs)” value in the data set with apomorphine is 13 vomitings.
Consider `CCN(CC)CCNS(=O)(=O)c1cc(Cl)ccc1OC` [Ref. l], for which the 50% lethal dose (LD50) at 144 h in data set [2] is > 100 mg/kg. Further, the “Antiemetic effect /22 (average number of vomitings for two dogs)” value in the data set with apomorphine was found to be 8 vomitings.
